According to patent publication US20240174618A1, “SUBSTITUTED (2-HETEROARYLOXYPHENYL)SULFONATES, SALTS THEREOF AND THEIR USE AS HERBICIDAL AGENTS” (Bayer Aktiengesellschaft, priority 2021, published 2024):

How the values were obtained:
Format in all cases: in vivo
[1] = system: Echinochloa crus-galli (ECHCG); experiment: A. Herbicidal pre-emergence efficacy, ECHCG; details: scored visually after about 3 weeks vs untreated controls
Procedure, shortened: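 Pre-emergence soil-surface spray in sandy loam pots, WP/EC in water plus 0.5% additive, 600 L/ha. Visual % damage rating after about 3 weeks in greenhouse vs. untreated; 0% = control-like, 100% = dead plants. Rates up to 1280 g/ha.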

Setaria viridis (SETVI) = experiment: C. Herbicidal pre-emergence efficacy, SETVI; details: scored after about 3 weeks
Procedure, shortened: (§1)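 Pre-emergence test: formulated compounds sprayed as aqueous suspension or emulsion with 0.5% additive at 600 l/ha onto soil covering sown seeds, at rates corresponding to 320 g/ha or less. After about 3 weeks in greenhouse, efficacy scored visually as percent versus untreated controls (100% = plants dead).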

[2] = system: Abutilon theophrasti (ABUTH); experiment: B. Herbicidal post-emergence efficacy, ABUTH; details: rated visually after about 3 weeks
Procedure, shortened: (§2)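 Post-emergence greenhouse test: one-leaf-stage plants, compound (WP/EC, +0.5% additive, 600 L/ha water, ≤1280 g/ha) applied to green parts; % efficacy scored visually vs untreated after ~3 wk; 100% = plants died.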

Veronica persica (VERPE) [3] = experiment: B. Herbicidal post-emergence efficacy, VERPE
Procedure, shortened: as §2

[4] = system: Triticum aestivum (TRZAS); experiment: F. Post-emergence effect on useful plants, TRZAS; details: useful plant
Procedure, shortened: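 Crop plants grown in sandy loam in the greenhouse were sprayed at the one-leaf stage, 2-3 weeks after sowing, with WP or EC formulations plus 0.5% additive at 600 l/ha water. Damage was scored visually after about 3 weeks against untreated controls (0% = like control, 100% = dead).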

[5] = system: Echinochloa crus-galli (ECHCG); experiment: C. Herbicidal pre-emergence efficacy, ECHCG; details: scored after about 3 weeks
Procedure, shortened: as §1

Veronica persica (VERPE) [6] = experiment: E. Herbicidal post-emergence efficacy, VERPE
Procedure, shortened: (§3)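 Greenhouse weeds were treated post-emergence at the one-leaf stage, 2-3 weeks after sowing in sandy loam, with WP or EC formulations sprayed as aqueous suspension/emulsion plus 0.5% additive at 600 l/ha, at 320 g/ha or less. Efficacy was rated visually after about 3 weeks versus untreated controls (100% = dead, 0% = like control).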

[7] = system: Polygonum convolvulus (POLCO); experiment: E. Herbicidal post-emergence efficacy, POLCO
Procedure, shortened: as §3

| Structure (SMILES) | Pre-emergence efficacy against ECHCG ([1]; 80 g/ha) [%] | Pre-emergence efficacy against ECHCG ([1]; 320 g/ha) [%] | Pre-emergence efficacy against ECHCG ([1]; 1280 g/ha) [%] | Pre-emergence efficacy against SETVI (Setaria viridis (SETVI); 80 g/ha) [%] | Pre-emergence efficacy against SETVI (Setaria viridis (SETVI); 320 g/ha) [%] | Post-emergence efficacy against ABUTH in % ([2]; 320 g/ha) [%] | Post-emergence efficacy against ABUTH in % ([2]; 1280 g/ha) [%] | Post-emergence efficacy against VERPE (Veronica persica (VERPE) [3]; 80 g/ha) [%] | Post-emergence efficacy against VERPE (Veronica persica (VERPE) [3]; 320 g/ha) [%] | Post-emergence efficacy against VERPE (Veronica persica (VERPE) [3]; 1280 g/ha) [%] | Post-emergence efficacy against TRZAS in % ([4]; application rate 80 g/ha) [%] | Pre-emergence efficacy against ECHCG ([5]; 80 g/ha) [%] | Pre-emergence efficacy against ECHCG ([5]; 320 g/ha) [%] | Post-emergence efficacy against VERPE in % (Veronica persica (VERPE) [6]; application rate 80 g/ha) [%] | Post-emergence efficacy against VERPE in % (Veronica persica (VERPE) [6]; application rate 320 g/ha) [%] | Post-emergence efficacy against POLCO in % ([7]; application rate 80 g/ha) [%] | Post-emergence efficacy against POLCO in % ([7]; application rate 320 g/ha) [%] | Post-emergence efficacy against ABUTH in % ([2]; 80 g/ha) [%] | Post-emergence efficacy against TRZAS in % ([4]; application rate 320 g/ha) [%] |
| --- | --- | --- | --- | --- | --- | --- | --- | --- | --- | --- | --- | --- | --- | --- | --- | --- | --- | --- | --- |
| O=S(=O)(CC1CC1)Oc1ccccc1Oc1ncc(Cl)cn1 [Example I-23] | 90 | 90 | 90 | 100 | 100 | 90 | 100 | 90 | 100 | 100 | 0 | 100 | 100 | 90 | 100 | 100 | 100 |  |  |
| O=S(=O)(CCC(F)(F)F)Oc1c(Cl)cccc1Oc1ncc(Br)cn1 [Example I-32] |  |  | 100 | 90 | 100 | 100 | 100 | 100 | 100 | 100 | 0 |  | 90 | 100 | 100 | 80 | 100 | 100 | 20 |
| O=S(=O)(CCCC(F)(F)F)Oc1c(Cl)cccc1Oc1ncc(Cl)cn1 [Example I-39] |  | 90 | 100 | 100 | 100 |  | 90 | 90 | 90 | 90 | 0 | 90 | 100 | 100 | 100 |  | 100 |  | 20 |
| O=S(=O)(CCC(F)(F)F)Oc1c(F)cccc1Oc1ncc(Cl)cn1 [Example I-48] | 90 | 90 | 90 | 100 | 100 | 90 | 90 |  | 90 | 90 | 10 | 100 | 100 | 100 | 100 | 100 | 100 | 90 |  |
| O=S(=O)(CCCC(F)(F)F)Oc1c(F)cccc1Oc1ncc(Cl)cn1 [Example I-49] | 90 | 90 | 90 | 100 | 100 | 90 | 90 |  |  | 90 | 20 | 100 | 100 | 100 | 100 | 100 | 100 | 90 |  |
| C=CCCS(=O)(=O)Oc1c(F)cccc1Oc1ncc(Cl)cn1 [Example I-50] |  | 90 | 100 | 100 | 100 | 90 | 90 |  | 90 | 90 | 0 | 80 | 100 | 90 | 100 |  | 100 |  | 10 |
| O=S(=O)(CCC1CC1)Oc1c(F)cccc1Oc1ncc(Cl)cn1 [Example I-55] |  | 100 | 100 | 80 | 90 | 90 | 90 | 90 | 90 | 90 | 20 | 90 | 100 | 100 | 100 | 90 | 100 | 90 |  |
| O=S(=O)(CCCC(F)F)Oc1c(F)cccc1Oc1ncc(Cl)cn1 [Example I-56] | 100 | 100 | 100 | 100 | 100 | 90 | 90 | 90 | 90 | 90 | 10 | 100 | 100 | 100 | 100 |  | 100 | 90 |  |
| O=S(=O)(CCCC(F)(F)C(F)(F)F)Oc1c(F)cccc1Oc1ncc(Cl)cn1 [Example I-68] |  | 90 | 100 |  | 100 | 100 | 100 | 100 | 100 | 100 | 20 |  | 90 | 100 | 100 | 80 | 90 | 100 | 20 |
